This is an account of results in PubChem BioAssay AID1959 (Broad Institute, 2009).

The source made the active and inactive calls.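 How the source made its calls: active means growth-inhibition EC50 no more than tenfold above the top tested dose; inconclusive means flat fit between 30% and 70% inhibition, or unreliable fit; inactive means EC50 more than tenfold above the top tested dose.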

In this test the test system is E. coli NEB5alpha growth, BacTiter-Glo luminescence, 4 h. In words: Escherichia coli growth inhibition, dose response, counter-screen for MEX-5/POS-1 RNA-binding inhibitor project, luminescence, NEB5alpha (AID 1959).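 Further: pUC19-transformed ampicillin-resistant cells grown in LB with ampicillin.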 In general terms: The purpose of a counterscreen is to sort out artefacts and off-target activity.
`COC(=O)C1CSc2[nH]c(=O)sc2C1c1ccc(OC)c(OC)c1` (stereo not given): the EC50 (commonly the concentration needed to bring the measured effect to its halfway point) was > 11 µM (inactive).
Consider `O=C(/C=C/c1c(Cl)cccc1Cl)N1CCOCC1`, for which the EC50 is > 11 µM (inactive).
For `CC1CCCN(c2nc3ccccc3nc2C(C#N)S(=O)(=O)c2cccs2)C1` (stereo not given), the EC50 was > 11 µM (inactive).
On to `COc1ccccc1C(=O)C1CCCN(C(=O)c2cccnc2SC)C1` (stereo not given), for which the EC50 was > 11 µM (inactive).
Turning to `Cc1ccc(CN(C)C(=O)CC2C(=O)NCCN2CC2CCCCC2)cc1` (stereo not given), the EC50 is > 11 µM (inactive).
In the case of `CCn1c(CNC(=O)c2ccc(Cl)cc2)nnc1SCC(=O)N1CCOCC1`, the EC50 is > 11 µM (inactive).
In the case of `Cc1c(N=Cc2c(O)n(C)c(=O)c3ccccc23)c(=O)n(-c2ccccc2)n1C`, the EC50 was > 11 µM (inactive).
For `CCOC(=O)C1Nc2ccc(OC(F)(F)F)cc2C2C=CCC12` (stereo not given), the EC50 was > 11 µM (inactive).
With `CC(=O)N1CCc2c(sc(NC(=O)C3CCCCC3)c2C(N)=O)C1`, the EC50 was > 11 µM (inactive).
Consider `Cc1cc(/C=C2\C(=O)NC(=O)N(c3ccc(Cl)cc3)C2=O)c(C)n1C`, for which the EC50 is > 11 µM (inactive).
On to `O=S(=O)(Nc1cc(Sc2cccc3cccnc23)c(O)c2ccccc12)c1ccc(F)cc1`, for which the EC50 is > 11 µM (inactive).
Regarding `O=C1NC(=O)C(=Cc2cn(CCOc3ccc4c(c3)OCO4)c3ccccc23)C(=O)N1`, the EC50 is > 11 µM (inactive).
For `N=c1c(S(=O)(=O)c2ccc(Cl)cc2)cc2c(=O)n3ccccc3nc2n1C1CCCC1`, the EC50 was > 11 µM (inactive).
For `CC1=C(C#N)C(=O)NC(=O)/C1=C\c1ccc(-c2ccc(C)cc2[N+](=O)[O-])o1`, the EC50 is > 11 µM (inactive).
For `Cc1ccccc1OCC(=O)Nc1ccc2c(c1)C(=O)c1ccccc1C2=O`, the EC50 is > 11 µM (inactive).
In the case of `Cc1ccc2nc3sc(C(=O)N4CCOCC4)c(N)c3cc2c1`, the EC50 was > 11 µM (inactive).
As for `CC(=O)Nc1ccc(S(=O)(=O)NNC(=O)C(=O)NNc2ccccn2)cc1`, the EC50 is > 11 µM (inactive).
As for `CNc1nnc(-c2cc3ccccc3oc2=O)s1`, the EC50 was > 11 µM (inactive).
As for `Nc1ccc(S(=O)(=O)NNC(=O)C(=O)NNc2ccccn2)cc1`, the EC50 was > 11 µM (inactive).
The same measure for `COc1cc(/C=C2\CCc3c2nc2ccccc2c3C(=O)O)cc(OC)c1OC`: > 11 µM (inactive); for `O=C(O)COc1ccc(/C=C/c2nc(-c3ccccc3O)n[nH]2)cc1`: > 11 µM (inactive); for `COc1ccc(C2C(C#N)=C(N)OC3=C2C(=O)CCC3)cc1Cn1nc(C)c([N+](=O)[O-])c1C` (stereo not given): > 11 µM (inactive).
The same measure for `CCN1C(=O)/C(=C\c2cccs2)C(C(=O)OC)=C1C`: > 11 µM (inactive).
As to `COc1ccc(-c2nnc(-c3cc4c(ccc5ccccc54)oc3=O)o2)cc1`, the EC50 was > 11 µM (inactive).
For the compound `CC(C)c1cc(C(N)=O)c(NC(=O)c2cccc(COc3ccc(Br)cc3)c2)s1`, the EC50 is > 11 µM (inactive).
In the case of `C=CCOc1cccc(C2C(C(=O)c3cc4ccccc4o3)=C(O)C(=O)N2c2cc(C)on2)c1` (stereo not given), the EC50 was > 11 µM (inactive).
As to `NC(=O)C1(N2CCCCC2)CCN(Cc2nc(-c3cccs3)no2)CC1`, the EC50 is > 11 µM (inactive).
For the compound `O=C(c1ccco1)N1CCN(c2ncnc3c(-c4ccc(Cl)cc4)nsc23)CC1`, the EC50 was > 11 µM (inactive).
On to `COc1ccc(C2C(C(=O)c3cccs3)=C(O)C(=O)N2c2nnc(C)s2)cc1OC` (stereo not given), for which the EC50 is > 11 µM (inactive).
The same measure for `CC(=O)N1CCc2c(sc(NC(=O)C3CCCN3S(=O)(=O)c3cccs3)c2C(N)=O)C1` (stereo not given): > 11 µM (inactive); for `Cn1cccc1/C=C1\C(=O)NC(=O)N(CCC2=CCCCC2)C1=O`: > 11 µM (inactive).
On to `Cc1cc2c3c(c1C)C1(C(=O)N3C(C)(C)CC2C)C(C#N)=C(N)OC2=C1C(=O)CC(C)(C)C2` (stereo not given), for which the EC50 is > 11 µM (inactive).
Take `CCCCC1=CC2=CC(=O)C(C)(OC(=O)c3cnc4ccccc4n3)C(=O)C2=CO1` (stereo not given): the EC50 was > 11 µM (inactive).
Take `COc1ccc(OC)c(C(=O)c2coc3ccc(O)c(CN4CCOCC4)c23)c1`: the EC50 is > 11 µM (inactive).
With `COc1ccc(C(=O)NC2(C(F)(F)F)C(=O)N(Cc3ccco3)C3=C2C(=O)CC(C)(C)C3)cc1OC` (stereo not given), the EC50 is > 11 µM (inactive).
In the case of `CC1(C)CC(=O)C2=C(C1)OC(N)=C(C#N)C2c1ccc(OC(=O)N2CCOCC2)cc1` (stereo not given), the EC50 is > 11 µM (inactive).
With `CCOC(=O)c1c(/N=C/C2C(=O)NC(=S)NC2=O)sc(C)c1C`, the EC50 was > 11 µM (inactive).
For `Cc1c(/C=N/Nc2ccc(F)cc2)c(O)n(C)c(=O)c1C#N`, the EC50 is > 11 µM (inactive).
For the compound `COc1ccc(NC(=O)/C=C/c2cccc(Br)c2)cn1`, the EC50 was > 11 µM (inactive).
Consider `CCCn1c(N)c(N(CCOC)C(=O)Cc2ccc(S(=O)(=O)N3CCOCC3)s2)c(=O)[nH]c1=O`, for which the EC50 was > 11 µM (inactive).
The same measure for `Cc1cc(/C=N/n2cnnc2)c(C)n1-c1cccc(C(=O)O)c1`: > 11 µM (inactive).
With `COCCNC(=O)C1Nc2ccc(OC(F)(F)F)cc2C2C=CCC12` (stereo not given), the EC50 is > 11 µM (inactive).
Regarding `Cn1ncc(Cl)c1C(=O)N/N=C/c1cccc(OC2CSC2)c1`, the EC50 is > 11 µM (inactive).
For the compound `O=C(CCl)NCCN1C(=O)S/C(=C\c2cccnc2)C1=O`, the EC50 is > 11 µM (inactive).
On to `CN(C)c1ccc(/C=C2\N=C(C(C)(C)C)OC2=O)cc1`, for which the EC50 was > 11 µM (inactive).
The same measure for `CCOC(=O)C1Nc2ccc(C(F)(F)F)cc2C2C=CCC12` (stereo not given): > 11 µM (inactive); for `COc1cccc(N2C(=O)NC(=O)/C(=C/c3ccc4c(c3)Cc3ccccc3-4)C2=O)c1`: > 11 µM (inactive).
For the compound `Cc1ccc(/C=C2\Oc3c(ccc(O)c3CN3CCN(C)CC3)C2=O)cc1`, the EC50 was > 11 µM (inactive).
As to `CCn1c(C)cc(/C=C2\C(=O)NC(=O)N(c3ccccc3C)C2=O)c1C`, the EC50 is > 11 µM (inactive).
`CC(C)(C)OC(=O)NCCCC1=CC2=CC(=O)C(C)(OC(=O)C3CCCC3)C(=O)C2=CO1` (stereo not given): the EC50 was > 11 µM (inactive).
Turning to `CCCN1C(=O)/C(=C/c2ccc(C)o2)SC1=Nc1ccc(OC)cc1`, the EC50 is > 11 µM (inactive).
The same measure for `CC(C)(C)c1ccc(/C=C2\Oc3cc(O)ccc3C2=O)cc1`: > 11 µM (inactive); for `CCN1C(=O)/C(=C/c2c(C)nn(C)c2C)SC1=S`: > 11 µM (inactive); for `CN(C)C1C(=O)C(C(N)=O)=C(O)C2(O)C(=O)C3=C(O)c4c(O)cccc4C(C)(O)C3C(O)C12` (stereo not given): 8.68 µM.
Turning to `O=C(O)C1Nc2c(O)cc(Cl)c([N+](=O)[O-])c2C2C=CCC12` (stereo not given), the EC50 is > 11 µM (inactive).
As to `CCc1cc[n+](-c2nc([O-])sc2C=O)cc1`, the EC50 is > 11 µM (inactive).
Take `O=C(NCCF)C1Nc2ccc(OC(F)(F)F)cc2C2C=CCC12` (stereo not given): the EC50 was > 11 µM (inactive).
On to `CCOC(=O)N1CC=C2C(C#N)=C(N)C(C#N)(C#N)[C@H](c3ccsc3)[C@H]2C1`, for which the EC50 was > 11 µM (inactive).
Turning to `CCCCC1(C)OC(=O)C(=Cc2ccc(N(CC)CC)cc2)C(=O)O1` (stereo not given), the EC50 was > 11 µM (inactive).
Regarding `Cc1ccc(/C=C2\C(=O)NC(=S)N(c3cccc(F)c3)C2=O)o1`, the EC50 was > 11 µM (inactive).
The same measure for `CC1(C)CC(=O)C2=C(C1)OC(N)=C(C#N)C2c1ccc2c(c1)OCO2` (stereo not given): > 5.6 µM (inactive); for `O=C(O)C1OC(Oc2cc3oc(-c4ccccc4)cc(=O)c3c(O)c2O)C(O)C(O)C1O` (stereo not given): > 11 µM (inactive).
On to `CCCCC1=CC2=C(c3ccco3)C(=O)C(C)(OC(=O)c3ccc(OC)cc3)C(=O)C2=CN1CCN1CCOCC1` (stereo not given), for which the EC50 was > 11 µM (inactive).
With `O=C(O)CCc1ccc(-c2ccccc2)n1-c1cccc(C(=O)O)c1`, the EC50 is > 11 µM (inactive).
As to `O=c1[nH]c(=S)[nH]c2[nH]c(=S)[nH]c12`, the EC50 was > 11 µM (inactive).
For the compound `CCN(CC)c1ccc(/C=N/NC(=O)c2ccco2)c(O)c1`, the EC50 is > 11 µM (inactive).
`Cc1ccc(NCC(=O)N/N=C/c2ccc(C(=O)O)cc2)cc1`: the EC50 is > 11 µM (inactive).
Consider `CCOc1ccc(/C=c2\sc3nc(-c4ccco4)nn3c2=O)cc1OCC`, for which the EC50 is > 11 µM (inactive).
Regarding `CC(C)CNC(=O)C1Nc2ccccc2C2C=CCC12` (stereo not given), the EC50 was > 11 µM (inactive).
As for `O=C(NCCCN1CCOCC1)C1Nc2ccc(OC(F)(F)F)cc2C2C=CCC12` (stereo not given), the EC50 is > 11 µM (inactive).
On to `NC(=O)c1ccsc1N`, for which the EC50 is > 11 µM (inactive).
As to `Cc1ccn2cc(-c3ccc(O)c(O)c3)nc2c1`, the EC50 was > 11 µM (inactive).
With `CCOC(=O)c1c(/N=C/c2c(O)n(-c3cccc(C)c3)c(=O)[nH]c2=O)sc2c1CCCC2`, the EC50 was > 11 µM (inactive).
The same measure for `COc1ccc(C2C(C#N)=C(/N=C/N3CCN(C)CC3)OC3=C2C(=O)CC(C)(C)C3)cc1` (stereo not given): > 11 µM (inactive); for `NC(=O)c1c(NC(=O)c2ccccc2)sc2c1CCN(Cc1ccccc1)C2`: > 11 µM (inactive); for `COc1ccccc1N1C(=O)S/C(=C\c2ccc(C)s2)C1=O`: > 11 µM (inactive).
Consider `CCOc1ccccc1NC(=O)Nc1ccc(OC)nc1`, for which the EC50 is > 11 µM (inactive).
Next, `CCOC(=O)c1c[nH]c2nc(C)ccc2c1=O`: > 11 µM (inactive); `Cc1cc(/C=C2\SC(=O)N(C)C2=O)c(C)n1-c1cccc(C(=O)O)c1`: > 11 µM (inactive); `Oc1ccc(-c2cn3ccccc3n2)cc1O`: > 11 µM (inactive).
As to `CCOc1cc(/C=C2\SC(=Nc3ccc(CC)cc3)NC2=O)ccc1OCC(=O)O`, the EC50 is > 11 µM (inactive).
Consider `COCCNC(=O)C1Nc2ccc(C(F)(F)F)cc2C2C=CCC12` (stereo not given), for which the EC50 is > 11 µM (inactive).
Turning to `COC(=O)c1c(C(=O)OC)c2n(c1C)Cc1ccccc1C2`, the EC50 is > 11 µM (inactive).
For the compound `OCCOc1ccc(C2=NCCO2)cc1`, the EC50 was > 11 µM (inactive).
Next, `O=C(/C=C/c1ccco1)NC(=S)Nc1cccc(C(=O)O)c1`: > 11 µM (inactive).
